Results reported in patent publication US4401827A, “Novel acyl-derivatives of carnitine and process for their preparation” (Sigma-Tau, priority 1978, dated 1983).
Where two headings read alike, the source gives them in different places.

Key:
F.F.A. plasma levels = experiment: plasma free fatty acids in 17-hrs fasted rats; type: in vivo; conditions: single i.p. 500 mg kg^-1, 17-hrs fasted rats
Procedure: In 17-hrs fasted rats the F.F.A. (fatty-free acids) splasms levels were reduced by a single i.p. administration with 500 mg kg^-s of d,l dipropyl ACAR; l dipropyl ACAR (ACAR=acetylcarnitine); d,l exanoyl CAR (CAR=carnitine) and d,l pyruvyl CAR.
The decrease, compared with untreated animals, was -35%, -29%, -41% and -65% respectively.

rat's ventricle strip = experiment: antiarrhythmic effect, isolated rat ventricle strip test; conditions: for antiarrhythmic properties (in words): isolated rat ventricle method; for inhibition at 1 µM / activation at 1 µM: Rattus norvegicus, concentration 1·10^-6 M; for inhibition at 1 µM: decrease; for activation at 1 µM: increase
Excerpt: (2) M. Libonati and G. Segre, Archivio Italiano di Scienze Farmacologiche. Serie XIII, Vol. X, pag. 3, (1960)
effect of some acyl derivatives (concentration 1 · 10^-6
of the formula (1) on the rat's ventricle strip test.
% variation versus basal value.

rabbit hearts = experiment: cardiokinetic effect on isolated rabbit heart (Langendorff) after anoxia; conditions: equal concentrations in perfusion fluid, Student's t test versus controls
Procedure: The cardiokinetic effect on isolated heart was also investigated as follows. Rabbit hearts isolated by the Langendorff method were perfused with oxygenized ringer solution at 38.2° C. The isometric contractions, electrocardiogram and coronary flow were recorded using a "Battaglia-Rangoni" polygraph. By removing the oxygen from the perfusion fluid, metabolic damage was induced in the cardiac muscle, up to an 80% reduction in the cardiac contractile force.
Under these conditions of prolonged anoxia the aerobic glycolysis of the myocardium is slowed down, accompanied by the storage of acid catabolites due to both the accumulation of pyruvic acid and its conversion to lactic acid which cannot be utilized because of the depression of pyridine enzymes, such as LDH (lactodehydrogenase). This has repercussions on the anaerobic glycolysis affecting an ever increasing number of enzymes, accompanied by a progressive and increasingly critical exhaustion of the myocardium. Thus a whole series of cardiac muscle fatigue levels occurs which can be observed by the behavior of the examined parameters, namely the contractile force, coronary flow, heart rate and cardiac rhythm. As soon as the contractile force was reduced by 80%, the perfusion fluid was once again oxygenized either without adding other compounds (controls) or with the addition of the compounds under examination.
Table 2 below gives the percentage values of the contractile force of the heart, showing a positive inotropic effect, calculated after 10 minutes from the interruption of the anoxic period (myocardial restoration).
of some acyl derivatives of formula (I) on the contractile
force of rabbit's heart. (Details are given in the text)

[1] = acute toxicity (tolerance) i.p. in mice, Weil method; conditions: mouse, in vivo, ip, Weil method (N = 5, K = 4)
Excerpt: The tolerance of the Acyl-carnitines of the formula (I), as well as their salts administered by intraperitoneal route was investigated in mice using the Weil Method (1).
LD50, mg kg^-1 i.p. in mice,
of some acyl derivatives of formula (1).
Weil method (N = 5, K = 4)

[2] = test system: arrhythmia induced by Aconitine in mice; experiment: arrhythmia induced by Aconitine in mice; type: in vivo; conditions: for change in vivo at 40 mg/kg / change in vivo at 150 mg/kg: Mus musculus, iv; for antiarrhythmic activity (in words): Aconitine, mice
Procedure: The antiarrhythmic effect of the compounds was also investigated in mice according to the P. W. Nwangwu, T. Holcslow procedure (4). Using Aconitine (5 mg/ml) as arrhythmogenic agent, the changes in the cardiac rhythm of the animals were recorded and the onset time of initial arrhythmia and/or of ventricular tachycardia were used as End point.
Antiarrhythmic agents display an increase in the latency time of initial ECG change.
(4) P. W. Nvangvu, T. L. Holcslow, Arch. Int. Pharmacodyn. 229, 219 (1977)
on the arrhythmia induced by Aconitine (5 γ/ml) in mice.
% increase of the time to onset of initial cardiac arrythmia

[3] = test system: plasma cholesterol, triglycerides and lipoproteins in rat; experiment: plasma cholesterol, triglycerides and lipoproteins in rat treated with olive oil; type: in vivo; conditions: for Lipoproteins, VLDL / Lipoproteins, HDL / Lipoproteins, LDL / cholesterol / triglycerides: olive oil 15 ml kg^-1 orally, compound ip, mean ± SEM, N = 8; for Lipoproteins, VLDL: oil control 15.84 ± 1.53; for Lipoproteins, HDL: oil control 24.18 ± 2.15; for Lipoproteins, LDL: oil control 57.38 ± 2.25; for cholesterol: oil control 88.33 ± 2.96; for triglycerides: oil control 213.66 ± 28.68
Procedure: In the rats the lipoproteic pattern altered due to an oil administration by gavage, was restored after a single treatment with d,l dipropyl ACAR; d,l ethyl exanoyl CAR; d,l 3 bromopropionyl CAR and d,l pyruvyl CAR.
The effect of some acyl derivatives of formula (I) on plasma cholesterol,
triglycerides and lipoproteins in rat
treated with olive oil, 15 ml kg^-1 orally. Mean Values ± SEM
Student "t" test .quadrature., Δ and indicate respectively a non
significant difference, a P ≤ 1% and 1%.

[4] = read-out: maximed frequency (- %), % variation versus basal value
[5] = read-out: whole excitability (- %), % variation versus basal value
[6] = read-out: refractory period (+ %), % variation versus basal value
[7] = read-out: rheobase (+ %), % variation versus basal value
[8] = read-out: latency time increase % of controls, arrhythmias
[9] = read-out: latency time increase % of controls, tachycardia

SMILES	decrease of F.F.A. plasma levels compared with untreated animals (F.F.A. plasma levels)	antiarrhythmic properties (in words) (rat's ventricle strip)	positive inotropic effect (in words) (rabbit hearts)	LD50 [1]	inhibition at 1 µM (rat's ventricle strip; [4])	inhibition at 1 µM (rat's ventricle strip; [5])	activation at 1 µM (rat's ventricle strip; [6])	activation at 1 µM (rat's ventricle strip; [7])	further results
CCCCCC(=O)OC(CC(=O)[O-])C[N+](C)(C)C (stereo not shown) [d,l exanoyl CAR]	-41%	–	–	–	–	–	–	–	–
CC(C)(C)C(=O)OC(CC(=O)[O-])C[N+](C)(C)C (stereo not shown) [pivaloyl]	–	most clear out antiarrhythmic properties	greater positive inotropic effect than that of the other compounds under examination	–	–	–	–	–	–
CCCC(CCC)C(=O)O[C@H](CC(=O)[O-])C[N+](C)(C)C [l dipropyl ACAR]	-29%	–	–	294 mg/kg	25.3%	58.2%	39.1%	55.1%	change in vivo at 40 mg/kg [2, 8]: 60%; change in vivo at 40 mg/kg [2, 9]: 40%
CCCC(CCC)C(=O)OC(CC(=O)[O-])C[N+](C)(C)C (stereo not shown) [dipropyl acetyl]	–	most clear out antiarrhythmic properties	greater positive inotropic effect than that of the other compounds under examination	–	–	–	–	–	antiarrhythmic activity (in words) [2]: markedly exhibited
C[N+](C)(C)CC(CC(=O)[O-])OC(=O)C=Cc1ccccc1 (racemic) [d,l cinnamoyl CAR]	–	–	greater positive inotropic effect than that of the other compounds under examination	1120 mg/kg	29.8%	75.3%	40.1%	49.6%	change in vivo at 150 mg/kg [2, 8]: 20%; change in vivo at 150 mg/kg [2, 9]: 8%
CCCC(CCC)C(=O)OC(CC(=O)[O-])C[N+](C)(C)C (racemic) [d,l dipropyl ACAR]	-35%	–	–	1700 mg/kg	23.2%	50.6%	34.3%	24.2%	change in vivo at 150 mg/kg [2, 8]: 65%; change in vivo at 150 mg/kg [2, 9]: 55%; Lipoproteins, VLDL [3]: 13.26 ± 2.03%; Lipoproteins, HDL [3]: 28.13 ± 3.27%; Lipoproteins, LDL [3]: 50.12 ± 2.08%; cholesterol [3]: 75.15 ± 3.11 mg/100 ml; triglycerides [3]: 121.50 ± 11.13 mg/100 ml; lipoproteic pattern altered due to oil administration (in words) ([3]; rats, single treatment): restored
CC(=O)C(=O)OC(CC(=O)[O-])C[N+](C)(C)C (racemic) [d,l pyruvyl CAR]	-65%	most clear out antiarrhythmic properties	greater positive inotropic effect than that of the other compounds under examination	3900 mg/kg	80.2%	95.5%	50.2%	48.2%	antiarrhythmic activity (in words) [2]: markedly exhibited; change in vivo at 40 mg/kg [2, 8]: 80%; change in vivo at 40 mg/kg [2, 9]: 60%; Lipoproteins, VLDL [3]: 10.15 ± 1.03%; Lipoproteins, HDL [3]: 33.26 ± 2.17%; Lipoproteins, LDL [3]: 50.15 ± 2.33%; cholesterol [3]: 70.26 ± 2.74 mg/100 ml; triglycerides [3]: 85.14 ± 7.22 mg/100 ml; increase of HDL and decrease of LDL and VLDL (in words) ([3]; rats, single treatment): most marked effect; lipoproteic pattern altered due to oil administration (in words) ([3]; rats, single treatment): restored; triglycerides and cholesterol plasma levels increased after oil (in words) ([3]; rats, single treatment): active against the triglycerides and cholesterol plasma levels
